Tested on: PL-induced carotid atherosclerosis in the LCA
Assay: Plaque development in partially ligated LCA (long-term experiment)
Assay type: in vivo, mouse (ApoE−/−)
Details: free drug counterpart, repeated doses, without photoactivation
From the text: All animal experiments performed in this study have been approved by the Institutional Animal Care and Use Committee (IACUC) of Arizona State University, USA. Male ApoE^−/− mice (8-12 weeks old), purchased from The Jackson Laboratory, were subjected to the partial ligation (PL) procedure to induce inflammation and carotid atherosclerosis in the left carotid artery (LCA). All mice were fed a high-fat diet (Envigo #TD.88137) for 1 week prior to the PL procedure and continued to be fed the same diet until the time of euthanasia. […] For biodistribution analysis, MoNP-DiD was administered via retro-orbital injection to mice that underwent the PL 1 week prior. The arterial tissue (from carotid bifurcation to abdominal aorta) and organs were harvested 4 hours after the injection, and DiD intensity was quantified for each of the three individual zones within the arterial segments using fluorescent imaging. Subsequently, the left common CA was embedded in Tissue-Tek O.C.T. compound, cryosectioned, and stained with a CD31 antibody (R&D Systems #AF3628) and DAPI. For organ assessment, various tissues (kidney, lung, heart, gut, liver, and spleen) and plasma were homogenized, and the fluorescent intensity in homogenized tissues was measured. […] Serum samples isolated from the mice were analyzed to determine their lipid profile and metabolic panel. […]

## Verteporfin [free VP]
  plaque sizes: little-to-no effect on plaque sizes

Reference: patent publication US20260345510A1, “MEMBRANE COATED NANOPARTICLES FOR DRUG DELIVERY” (Arizona Board Regents on Behalf of Arizona State University, priority 2022, published 2026)
